Key:
PAD = test: Induction of PAD activity against human A549 cells; format: toxicity, cell-based
[1] = Clearance in rat at 1 mg/kg, iv; format: ADME, organism-based; conditions: in vivo
[2] = Antiinflammatory activity against human dendritic cells assessed as inhibition of LPS induced IL-23 production; format: functional, cell-based; conditions: Dendritic cell
THP-1 = test: Antiinflammatory activity against human THP-1 cells assessed as inhibition of LPS induced IL-23 production; format: functional, cell-based
[3] = molecular target: T1, Interleukin-1 receptor-associated kinase 4 (Homo sapiens, UniProt Q9NWZ3); test: Inhibition of IRAK4 (unknown origin)
T1 sequence (Q9NWZ3 whole entry): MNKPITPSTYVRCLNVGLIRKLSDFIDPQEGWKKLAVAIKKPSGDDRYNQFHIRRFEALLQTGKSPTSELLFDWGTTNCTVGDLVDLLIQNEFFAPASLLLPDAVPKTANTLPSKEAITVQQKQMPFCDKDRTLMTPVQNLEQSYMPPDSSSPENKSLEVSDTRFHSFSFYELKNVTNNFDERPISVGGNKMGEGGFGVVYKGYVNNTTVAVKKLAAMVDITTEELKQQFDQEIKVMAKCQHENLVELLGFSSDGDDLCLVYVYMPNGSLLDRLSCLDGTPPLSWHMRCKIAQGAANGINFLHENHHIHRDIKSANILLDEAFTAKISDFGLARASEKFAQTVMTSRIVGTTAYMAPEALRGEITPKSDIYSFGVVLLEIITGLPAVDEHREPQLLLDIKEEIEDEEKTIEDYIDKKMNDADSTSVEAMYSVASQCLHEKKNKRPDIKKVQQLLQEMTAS

[4] = Oral bioavailability in rat at 5 mg/kg; format: ADME, organism-based; conditions: in vivo

Structure (SMILES) | clearance [1] | IC50 [2] | IC50 (THP-1) | IC50 [3] | bioavailability [4] | IC50 (PAD)
NC(=O)[C@@H]1[C@H](Nc2nc(Nc3ccc(F)c(C(=O)N4CCCC4)c3)nc3ccsc23)[C@H]2C=C[C@@H]1C2 | 5.52 L/h/kg | 0.08 µM | 0.27 µM | 0.003 µM |  | 8 µM
Cn1ncc2nc(Nc3cccc(C(=O)N4CCCC4)c3)nc(N[C@H]3[C@@H](C(N)=O)[C@@H]4C=C[C@H]3C4)c21 |  |  | 0.9 µM | 0.004 µM |  | 10 µM
NC(=O)[C@@H]1[C@H](Nc2nc(Nc3cccc(C(=O)N4CCCC4)c3)nc3ccccc23)[C@H]2C=C[C@@H]1C2 | 6.12 L/h/kg | 0.49 µM | 0.25 µM | 0.005 µM |  | 7.5 µM
CC(C)n1ccc2nc(Nc3ccc4cnn(C(C)C)c4c3)nc(N[C@H]3[C@@H](C(N)=O)[C@@H]4C=C[C@H]3C4)c21 |  | 0.92 µM | 0.42 µM | 0.0027 µM |  | 2.6 µM
NC(=O)[C@@H]1[C@H](Nc2nc(Nc3cccc(C(=O)N4CCC(F)C4)c3)nc3ccsc23)[C@H]2C=C[C@@H]1C2 (stereo partly drawn) | 4.92 L/h/kg | 0.04 µM | 0.09 µM | 0.015 µM | 3% | 2.7 µM
CN1CCN(c2cc(Nc3nc(N[C@H]4[C@@H](C(N)=O)[C@@H]5C=C[C@H]4C5)c4sccc4n3)ccc2F)CC1 |  |  | 0.51 µM | 0.05 µM |  | 2 µM
NC(=O)[C@@H]1[C@H](Nc2nc(Nc3ccnc(N4CCCC4)c3)nc3ccsc23)[C@H]2C=C[C@@H]1C2 |  |  | 0.2 µM | 0.206 µM |  | 2.6 µM
NC(=O)[C@@H]1[C@H](Nc2nc(Nc3ccc(F)c(N4CCOCC4)c3)nc3ccsc23)[C@H]2C=C[C@@H]1C2 | 3.12 L/h/kg |  | 0.24 µM | 0.095 µM | 23% | 2.5 µM
NC(=O)[C@@H]1[C@H](Nc2nc(Nc3cccc(C(=O)N4CCCC4)c3)nc3cc[nH]c23)[C@H]2C=C[C@@H]1C2 |  | 1.4 µM | 3.8 µM | 0.006 µM |  | > 100 µM
NC(=O)[C@H]1CCC[C@H]1Nc1nc(Nc2cccc(C(=O)N3CCCC3)c2)nc2ccsc12 | 6.24 L/h/kg | 0.99 µM | 0.26 µM | 0.017 µM |  | > 100 µM
NC(=O)[C@@H]1[C@H](Nc2nc(Nc3cccc(C(=O)N4CCCC4)c3)nc3ncsc23)[C@H]2C=C[C@@H]1C2 | 6.3 L/h/kg | 7.3 µM | 0.28 µM | 0.003 µM |  | 4 µM
O=C(c1cccc(Nc2nc(NC3C[C@@H]4CC[C@H]3C4)c3sccc3n2)c1)N1CCC(F)C1 (stereo partly drawn) | 8.58 L/h/kg |  | 4.7 µM | 0.098 µM |  | 3.5 µM
NC(=O)[C@@H]1[C@H](Nc2nc(Nc3cccc(C(=O)N4CCCC4)c3)nc3ccoc23)[C@H]2C=C[C@@H]1C2 | 6.06 L/h/kg | 0.09 µM | 0.22 µM | 0.003 µM |  | 5.8 µM
NC(=O)[C@@H]1[C@H](Nc2nc(Nc3cccc(C(=O)N4CCCC4)c3)nc3[nH]ncc23)[C@H]2C=C[C@@H]1C2 | 7.44 L/h/kg | 0.48 µM | 0.29 µM | 0.004 µM |  | 5.8 µM
CC(C)n1ncc2ccc(Nc3nc(N[C@H]4[C@@H](C(N)=O)[C@@H]5C=C[C@H]4C5)c4c(ccn4C)n3)cc21 |  | 1.3 µM | 0.5 µM | 0.0041 µM |  | 3.3 µM
NC(=O)[C@@H]1[C@H](Nc2nc(Nc3cccc(C(=O)N4CCOCC4)c3)nc3ccsc23)[C@H]2C=C[C@@H]1C2 | 6.78 L/h/kg | 0.08 µM | 0.15 µM | 0.006 µM |  | 4.9 µM
NC(=O)c1ccccc1Nc1nc(Nc2cccc(C(=O)N3CCCC3)c2)nc2ccsc12 | 3.36 L/h/kg | 1.5 µM | 0.24 µM | 0.019 µM |  | 6.4 µM
NC(=O)[C@@H]1[C@H](Nc2nc(Nc3cc(C(=O)N4CCCC4)ccc3F)nc3ccsc23)[C@H]2C=C[C@@H]1C2 |  |  | 11 µM | 0.711 µM |  | 14 µM
NC(=O)[C@@H]1[C@H](Nc2nc(Nc3cc(F)cc(N4CCOCC4)c3)nc3ncsc23)[C@H]2C=C[C@@H]1C2 |  |  | 2.6 µM | 0.018 µM |  | 7.5 µM
NC(=O)[C@@H]1[C@H](Nc2nc(Nc3cccc(C(=O)N4CCCC4)c3)nc3[nH]cnc23)[C@H]2C=C[C@@H]1C2 | 10.8 L/h/kg | 0.2 µM | 0.2 µM | 0.005 µM |  | 4 µM
NC(=O)[C@@H]1[C@H](Nc2nc(Nc3cccc(C(=O)N4CCCC4)c3)nc3cn[nH]c23)[C@H]2C=C[C@@H]1C2 |  |  | 9.4 µM | 0.017 µM |  | > 100 µM

Stronger by IC50 (THP-1), values ahead:

clearance [1] | IC50 [2] | IC50 (THP-1) | IC50 [3] | bioavailability [4] | Structure (SMILES) | IC50 (PAD)
8.46 L/h/kg | 0.05 µM | 0.06 µM | 0.002 µM |  | NC(=O)[C@@H]1[C@H](Nc2nc(Nc3cc(F)cc(C(=O)N4CCCC4)c3)nc3ccsc23)[C@H]2C=C[C@@H]1C2 | 1.8 µM
7.92 L/h/kg | 0.1 µM | 0.08 µM | 0.01 µM | 12% | NC(=O)[C@@H]1[C@H](Nc2nc(Nc3ccnc(N4CCOCC4)c3)nc3ccsc23)[C@H]2C=C[C@@H]1C2 | 2.7 µM
 | 0.04 µM | 0.07 µM | 0.01 µM |  | NC(=O)[C@@H]1[C@H](Nc2nc(Nc3ccc(C(=O)N4CCCC4)cc3)nc3ccsc23)[C@H]2C=C[C@@H]1C2 | 0.56 µM
 |  | 0.02 µM | 0.008 µM |  | Cc1c[nH]c2nc(Nc3cccc(C(=O)N4CCCC4)c3)nc(N[C@H]3[C@@H](C(N)=O)[C@@H]4C=C[C@H]3C4)c12 | 0.08 µM
 | 0.03 µM | 0.07 µM | 0.014 µM |  | NC(=O)[C@@H]1[C@H](Nc2nc(Nc3ccc(C(=O)N4CCOCC4)cc3)nc3ccsc23)[C@H]2C=C[C@@H]1C2 | 1.1 µM
5.94 L/h/kg | 0.1 µM | 0.08 µM | 0.012 µM | 16% | CN1CCN(c2cc(F)cc(Nc3nc(N[C@H]4[C@@H](C(N)=O)[C@@H]5C=C[C@H]4C5)c4sccc4n3)c2)CC1 | 1.5 µM
14.5 L/h/kg | 0.06 µM | 0.08 µM | 0.007 µM | < 1% | CN1CCN(c2cc(Nc3nc(N[C@H]4[C@@H](C(N)=O)[C@@H]5C=C[C@H]4C5)c4sccc4n3)ccn2)CC1 | 1.7 µM
6 L/h/kg | 0.05 µM | 0.04 µM | 0.011 µM |  | NC(=O)[C@@H]1[C@H](Nc2nc(Nc3cccc(C(=O)N4CCCC4)c3)nc3[nH]ccc23)[C@H]2C=C[C@@H]1C2 | 0.42 µM
 | 0.19 µM | 0.05 µM | 0.049 µM |  | NC(=O)[C@@H]1[C@H](Nc2nc(Nc3ccc(OCCN4CCCC4)cc3)nc3ccsc23)[C@H]2C=C[C@@H]1C2 | 0.61 µM
2.82 L/h/kg |  | 0.037 µM | 0.005 µM | 7% | Cc1n[nH]c2nc(Nc3cc(F)cc(N4CCOCC4)c3)nc(N[C@H]3[C@@H](C(N)=O)[C@@H]4C=C[C@H]3C4)c12 | 0.26 µM

From ChEMBL document CHEMBL5104140, “Bicyclic pyrimidine compounds as potent IRAK4 inhibitors” (Bioorg Med Chem Lett, 2022)
